Assay results: patent publication US4039736A (Bristol-Myers Company, priority 1976, dated 1977)
≈ marks a conversion by molar mass, not a printed value.

Columns and labels:
animal tumor systems = conditions: reported in literature; cited from earlier work
[1] = acute intraperitoneal LD50 in mice; conditions: mouse, in vivo, ip
[2] = tested on: Cryptococcus neoformans A-1503; assay: MIC, standard tube dilution procedure; format: cell-based; conditions: A1503; in vitro, Cryptococcus neoformans A-1503; read-out: MIC
L-1210 leukemia [3] = assay: transplanted mouse leukemia L-1210 (ascitic); conditions: single i.p. injection Day 1
Description: (§1) The compounds of the present invention were also tested against various transplantable rodent tumer systems.
(§2) Single injection Day 1 intraperitoneally.?
(§3) T/C percent MST=median survival time in days: Treated/Control × 100

[4] = tested on: Klebsiella pneumoniae A-9977; assay: MIC, standard tube dilution procedure; format: cell-based; conditions: A9977; in vitro, Klebsiella pneumoniae A-9977; read-out: MIC
Solubility = format: physicochemical
[5] = tested on: Streptococcus pyogenes A-9604; assay: MIC, standard tube dilution procedure; format: cell-based; conditions: A9604; in vitro, Streptococcus pyogenes A-9604; read-out: MIC
Escherichia coli A-15119 = assay: MIC, standard tube dilution procedure; format: cell-based; conditions: A15119; in vitro, Escherichia coli A-15119; read-out: MIC
Candida krusei A-15052 = assay: MIC, standard tube dilution procedure; format: cell-based; conditions: Pichia kudriavzevii, A15052; in vitro, Candida krusei A-15052; read-out: MIC
Candida albicans A-9540 = assay: MIC, standard tube dilution procedure; format: cell-based; conditions: A9540; in vitro, Candida albicans A-9540; read-out: MIC
L-1210 leukemia [6] = assay: L-1210 mouse leukemia, purified compounds, BDF1 female mice
Description: Inoculum: 10^6 ascitic cells, i.p. into BDF1 female mice
Treatment: i.p. in 0.5 ml. volume
Evaluation: MST = median survival time in days; %T/C = MST treated/MST
(prolongation of host survival)

[7] = tested on: Staphylococcus aureus A-9537; assay: MIC, standard tube dilution procedure; format: cell-based; conditions: A9537; in vitro, Staphylococcus aureus A-9537; read-out: MIC
P-388 leukemia = assay: transplanted mouse leukemia P-388 (ascitic); conditions: single i.p. injection Day 1
Description: as §1, §2, §3

[8] = tested on: Trichophyton mentagrophytes A-9870; assay: MIC, standard tube dilution procedure; format: cell-based; conditions: A9870; in vitro, Trichophyton mentagrophytes A-9870; read-out: MIC
[9] = tested on: Staphylococcus aureus A-9497; assay: MIC, standard tube dilution procedure; format: cell-based; conditions: A9497; in vitro, Staphylococcus aureus A-9497; read-out: MIC
Escherichia coli A-21780 = assay: MIC, standard tube dilution procedure; format: cell-based; conditions: A21780; in vitro, Escherichia coli A-21780; read-out: MIC
[10] = tested on: Streptococcus pneumoniae A-9585; assay: MIC, standard tube dilution procedure; format: cell-based; conditions: A9585; in vitro, Streptococcus pneumoniae A-9585; read-out: MIC
[11] = tested on: Candida tropicalis A-15051; assay: MIC, standard tube dilution procedure; format: cell-based; conditions: A15051; in vitro, Candida tropicalis A-15051; read-out: MIC
Proteus mirabilis A-9900 = assay: MIC, standard tube dilution procedure; format: cell-based; conditions: A9900; in vitro, Proteus mirabilis A-9900; read-out: MIC
[12] = activity of column fractions of bohemic acid complex; conditions: Example 8 large scale fractionation
Description: Sephadex LH-20 soaked for 68 hours in chloroform was slurry packed into a Pharmacia SR 25/100 column (25 mm. I.D. × 100 cm. height) equipped with adjustable teflon tips at each end. The column was packed so as to be completely filled from tip to tip, an effective bed height of 90-95 cm. Bohemic acid complex (500 mg.) was dissolved in 10 ml. chloroform and applied to the column which was then allowed to develop with chloroform by downflow at a take-off rate of 1 ml./min. Eluted liquid was collected in 6 ml. cuts in a fraction collector. Samplings of even numbered tubes were diluted 80-fold with chloroform and read in a Bausch and Lomb Spectronic 20 colorimeter at 490 mμ. Four distinct bands of anthracycline pigments were noted as follows:
The solids obtained were chromatographed on Brinkmann 60F254 silica gel thin layer plates using an 80:20 toluene:methanol solvent system. […] The second band gave a characteristic pinkish red zone at about Rf =0.75. […] The third fraction to elute gave a single zone with Rf ~0.3. […] The final band to elute gave a zone at Rf ~0.3 and comprised mainly marcellomycin. […]
A 6 inch (diameter) × 77 inch (height) glass column was equipped at the base with a no clog filter on top of which was placed a layer of glass wool followed by a circular polyethylene frit. […] Aliquots of every fifth fraction were diluted and analyzed as described in Example 7. […]

[13] = 3.2 mg/kg/day i.p., Day 1, 1 injection
[14] = 3.2 mg/kg/day i.p., Day 1→5, 5 injections
[15] = 6.4 mg/kg/day i.p., Day 1, 1 injection
[16] = 6.4 mg/kg/day i.p., Day 1→5, 5 injections
[17] = 12.8 mg/kg/day i.p., Day 1, 1 injection
[18] = .2 mg/kg/day i.p., Day 1→5, 5 injections
[19] = .4 mg/kg/day i.p., Day 1, 1 injection
[20] = .4 mg/kg/day i.p., Day 1→5, 5 injections
[21] = .8 mg/kg/day i.p., Day 1, 1 injection
[22] = .8 mg/kg/day i.p., Day 1→5, 5 injections

CC(=O)[C@]1(O)Cc2c(O)c3c(c(O)c2[C@@H](O[C@H]2C[C@H](N)[C@H](O)[C@H](C)O2)C1)C(=O)c1c(O)cccc1C3=O [carminomycin]
activity against animal tumor systems (animal tumor systems): active against several animal tumor systems

CC[C@@]1(O)C[C@H](O[C@H]2C[C@H](N(C)C)[C@H](O[C@H]3C[C@H](O)[C@H](O)[C@H](C)O3)[C@H](C)O2)c2c(cc3c(c2O)C(=O)c2c(O)ccc(O)c2C3=O)[C@H]1C(=O)OC [musettamycin]
LD50 [1]: 9.8 to 21.1 mg/kg | MIC [2]: 63 µg/mL (≈ 88 µM) | Avg. wt. Difference (T-C, g.) (L-1210 leukemia [3]; 3.2 mg/kg): -2.5 g | T/C Percent MST (L-1210 leukemia [3]; 3.2 mg/kg): 120% | Avg. wt. Difference (T-C, g.) (L-1210 leukemia [3]; 6.4 mg/kg): -2.5 g | T/C Percent MST (L-1210 leukemia [3]; 6.4 mg/kg): 140% | Avg. wt. Difference (T-C, g.) (L-1210 leukemia [3]; .8 mg/kg): -1.1 g | T/C Percent MST (L-1210 leukemia [3]; .8 mg/kg): 107% | MIC [4]: > 125 µg/mL | Solubility (Solubility; organic solvents): Soluble in most organic solvents | Solubility (Solubility; water, aliphatic hydrocarbons and ether): insoluble in water, aliphatic hydrocarbons and ether | MIC [5]: 0.06 µg/mL (≈ 0.0838 µM) | MIC (Escherichia coli A-15119): > 125 µg/mL | MIC (Candida krusei A-15052): 125 µg/mL (≈ 175 µM) | MIC (Candida albicans A-9540): 125 µg/mL (≈ 175 µM) | Average Weight Change in g. (L-1210 leukemia [6]; [13]): +0.3 g. | MST %T/C (L-1210 leukemia [6]; [13]): 129% | MST Days (L-1210 leukemia [6]; [13]): 9.0 days | Average Weight Change (L-1210 leukemia [6]; [14]): -1.3 g | MST %T/C (L-1210 leukemia [6]; [14]): 157% | MST Days (L-1210 leukemia [6]; [14]): 11.0 days | Average Weight Change in g. (L-1210 leukemia [6]; [15]): +0.5 g. | MST %T/C (L-1210 leukemia [6]; [15]): 143% | MST Days (L-1210 leukemia [6]; [15]): 10.0 days | Average Weight Change (L-1210 leukemia [6]; [16]): -1.5 g | MST %T/C (L-1210 leukemia [6]; [16]): 86% | MST Days (L-1210 leukemia [6]; [16]): 6.0 days | Average Weight Change (L-1210 leukemia [6]; [17]): -0.6 g | MST %T/C (L-1210 leukemia [6]; [17]): 150% | MST Days (L-1210 leukemia [6]; [17]): 10.5 days | Average Weight Change in g. (L-1210 leukemia [6]; [18]): +1.8 g. | MST %T/C (L-1210 leukemia [6]; [18]): 129% | MST Days (L-1210 leukemia [6]; [18]): 9.0 days | Average Weight Change in g. (L-1210 leukemia [6]; [19]): +1.3 g. | MST %T/C (L-1210 leukemia [6]; [19]): 114% | MST Days (L-1210 leukemia [6]; [19]): 8.0 days | Average Weight Change in g. (L-1210 leukemia [6]; [20]): +0.6 g. | MST %T/C (L-1210 leukemia [6]; [20]): 129% | MST Days (L-1210 leukemia [6]; [20]): 9.0 days | Average Weight Change in g. (L-1210 leukemia [6]; [21]): +1.2 g. | MST %T/C (L-1210 leukemia [6]; [21]): 121% | MST Days (L-1210 leukemia [6]; [21]): 8.5 days | Average Weight Change in g. (L-1210 leukemia [6]; [22]): +0.4 g. | MST %T/C (L-1210 leukemia [6]; [22]): 136% | MST Days (L-1210 leukemia [6]; [22]): 9.5 days | MIC [7]: 1 µg/mL (≈ 1.4 µM) | Avg. wt. Difference (T-C, g.) (P-388 leukemia; 3.2 mg/kg): -3.0 g | T/C Percent MST (P-388 leukemia; 3.2 mg/kg): 145% | Avg. wt. Difference (T-C, g.) (P-388 leukemia; 6.4 mg/kg): -3.4 g | T/C Percent MST (P-388 leukemia; 6.4 mg/kg): 160% | Avg. wt. Difference (T-C, g.) (P-388 leukemia; .2 mg/kg): -2.1 g | T/C Percent MST (P-388 leukemia; .2 mg/kg): 120% | Avg. wt. Difference (T-C, g.) (P-388 leukemia; .4 mg/kg): -1.6 g | T/C Percent MST (P-388 leukemia; .4 mg/kg): 135% | Avg. wt. Difference (T-C, g.) (P-388 leukemia; .8 mg/kg): -2.0 g | T/C Percent MST (P-388 leukemia; .8 mg/kg): 140% | MIC [8]: > 125 µg/mL | MIC [9]: 0.5 µg/mL (≈ 0.699 µM) | MIC (Escherichia coli A-21780): 32 µg/mL (≈ 44.7 µM) | MIC [10]: 0.06 µg/mL (≈ 0.0838 µM) | MIC [11]: 63 µg/mL (≈ 88 µM) | MIC (Proteus mirabilis A-9900): > 125 µg/mL | activity of fraction [12]: active
